Where a SMILES comes first, the peptide text is derived from it.
Molecular target: T1, gephE (Rattus norvegicus, UniProt Q03555)
T1 construct: gephE (residues 318-736) was generated; made in house
T1 sequence (Q03555 350-768): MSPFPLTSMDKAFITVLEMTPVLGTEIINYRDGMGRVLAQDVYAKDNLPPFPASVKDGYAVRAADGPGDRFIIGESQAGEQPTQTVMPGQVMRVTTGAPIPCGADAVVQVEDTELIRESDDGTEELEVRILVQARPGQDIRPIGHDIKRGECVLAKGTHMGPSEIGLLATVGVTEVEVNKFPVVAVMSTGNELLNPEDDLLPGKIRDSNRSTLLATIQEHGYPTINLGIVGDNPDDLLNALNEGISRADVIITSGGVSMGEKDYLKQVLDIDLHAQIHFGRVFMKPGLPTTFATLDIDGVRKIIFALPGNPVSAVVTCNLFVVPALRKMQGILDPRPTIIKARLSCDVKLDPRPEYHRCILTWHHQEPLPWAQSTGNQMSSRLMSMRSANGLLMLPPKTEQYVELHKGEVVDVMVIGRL
Experiment: TRIC displacement 12-point dose response against gephE-NN1D-Alexa647 complex
Type: binding

Ki	Compound
21.4 µM	CC(C)C[C@H](NC(=O)[C@@H](N)CC(=O)O)C(=O)N[C@@H](CCCNC(=N)N)C(=O)N[C@@H](CO)C(=O)N[C@@H](CC(N)=O)C(=O)N[C@@H](CC(=O)O)C(=O)N[C@@H](Cc1ccccc1)C(=O)N[C@@H](CO)C(=O)N[C@H](C(=O)N[C@H](C(=O)NCC(=O)N[C@@H](CO)C(=O)N[C@@H](CC(C)C)C(=O)N1CCC[C@H]1C(=O)N[C@@H](CCCNC(=N)N)C(N)=O)C(C)C)C(C)C [GlyRβ_Full_Positional_Scan_166] (H-DLRSNDFSVVGSLPR-NH2)
22.4 µM	CC(C)C[C@H](NC(=O)[C@H](CO)NC(=O)[C@H](Cc1ccccc1)NC(=O)[C@H](CC(=O)O)NC(=O)[C@H](CC(N)=O)NC(=O)[C@H](CO)NC(=O)[C@H](CCCNC(=N)N)NC(=O)[C@H](CC(C)C)NC(=O)[C@@H](N)CC(=O)O)C(=O)N[C@H](C(=O)NCC(=O)N[C@@H](CO)C(=O)N[C@@H](CC(C)C)C(=O)N1CCC[C@H]1C(=O)N[C@@H](CCCNC(=N)N)C(N)=O)C(C)C [GlyRβ_Full_Positional_Scan_164] (H-DLRSNDFSLVGSLPR-NH2)
9.01 µM	CC[C@H](C)[C@H](NC(=O)[C@H](CO)NC(=O)[C@H](Cc1ccccc1)NC(=O)[C@H](CC(=O)O)NC(=O)[C@H](CC(N)=O)NC(=O)[C@H](CO)NC(=O)[C@H](CCCNC(=N)N)NC(=O)[C@H](CC(C)C)NC(=O)[C@@H](N)CC(=O)O)C(=O)N[C@H](C(=O)NCC(=O)N[C@@H](CO)C(=O)N[C@@H](CC(C)C)C(=O)N1CCC[C@H]1C(=O)N[C@@H](CCCNC(=N)N)C(N)=O)[C@@H](C)CC [GlyRβ_Full_Positional_Scan_183] (H-DLRSNDFSIIGSLPR-NH2)

The next lines start with the compound.

Compound	Ki
CC[C@H](C)[C@H](NC(=O)[C@@H](NC(=O)[C@H](Cc1ccccc1)NC(=O)[C@H](CC(=O)O)NC(=O)[C@H](CC(N)=O)NC(=O)[C@H](CO)NC(=O)[C@H](CCCNC(=N)N)NC(=O)[C@H](CC(C)C)NC(=O)[C@@H](N)CC(=O)O)[C@@H](C)O)C(=O)N[C@H](C(=O)NCC(=O)N[C@@H](CO)C(=O)N[C@@H](CC(C)C)C(=O)N1CCC[C@H]1C(=O)N[C@@H](CCCNC(=N)N)C(N)=O)C(C)C [GlyRβ_Full_Positional_Scan_156] (H-DLRSNDFTIVGSLPR-NH2)	16.6 µM
CC[C@H](C)[C@H](NC(=O)[C@H](CO)NC(=O)[C@H](Cc1c[nH]c2ccccc12)NC(=O)[C@H](CC(=O)O)NC(=O)[C@H](CC(N)=O)NC(=O)[C@H](CO)NC(=O)[C@H](CCCNC(=N)N)NC(=O)[C@H](CC(C)C)NC(=O)[C@@H](N)CC(=O)O)C(=O)N[C@H](C(=O)NCC(=O)N[C@@H](CO)C(=O)N[C@@H](CC(C)C)C(=O)N1CCC[C@H]1C(=O)N[C@@H](CCCNC(=N)N)C(N)=O)C(C)C [GlyRβ_Full_Positional_Scan_128] (H-DLRSNDWSIVGSLPR-NH2)	31.9 µM
